Test results taken from patent publication US20240158418A1 (C4 Therapeutics, Inc., priority 2021, published 2024).
Like-named read-outs stand apart in the source and are kept apart here.

Assays:
EGFR L858R-T790M = target: T1, EGFR L858R-T790M (Homo sapiens, UniProt P00533, L858R/T790M); assay: EGFR degradation, Total EGFR (L858R-specific) HTRF, NCI-H1975; type: cell-based; settings: 6 hours
T1 construct: NCI-H1975 (harboring EGFR heterozygous L858R-T790M mutations); host or cells: NCI-H1975
Outline: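 Cells in RPMI 1640 + 10% FBS treated 6 h at 37°C with compound, 11-point half-log titration from 10 μM top, in duplicate. pY1068 and total EGFR read by HTRF (pan-EGFR antibody for wild-type A431; L858R-specific for mutants); IC50 for phospho inhibition, DC50 for 50% degradation.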

pY1068 EGFR L858R = target: T2, pY1068 EGFR L858R (Homo sapiens, UniProt P00533, L858R); assay: Phospho-EGFR (pY1068) inhibition HTRF, NCI-H3255; type: cell-based; settings: 6 hours, read-out: pEGFR IC50
T2 construct: NCI-H3255 (harboring EGFR heterozygous L858R mutation); host or cells: NCI-H3255
Source text: (§1) NCI-H1975 (harboring EGFR heterozygous L858R-T790M mutations) and NCI-H3255 (harboring EGFR heterozygous L858R mutation) were purchased from ATCC and NCI, respectively. NCI-H1975+CS (harboring EGFR heterozygous L858R-T790M-C797S mutations) was generated using CRISPR technology to introduce the additional C797S mutation by Horizon Discovery. A431 (harboring EGFR wildtype) was purchased from ATCC. RPMI 1640 no-phenol red medium and fetal bovine serum (FBS) were purchased from Gibco (Grand Island, NY, USA). Cell culture flasks and 384-well microplates were acquired from VWR (Radnor, PA, USA). Phosphorylated (pY1068) EGFR and Total EGFR (using L858R-specific detection antibody and pan-EGFR antibody for EGFR mutant cell lines and EGFR wild-type cell lines, respectively) HTRF assay kits were purchased from Cisbio (Bedford, MA, USA).
(§2) Degradation of EGFR protein containing L858R mutation or wild-type was determined based on quantification of FRET signal using a Total EGFR (L858R-specific or pan-EGFR detecting) HTRF assay kit. Phospho-EGFR (pEGFR) inhibition was determined based on quantification of FRET signal using a pY1068 EGFR HTRF assay kit. In separate assay plates, test compounds were added to the 384-well plate from a top concentration of 10 μM with 11 points, half log titration in duplicates. For each assay, 12.5 uL of cells suspended in assay media (RPMI 1640 no-phenol red medium+10% FBS) at cell densities indicated for each cell line in Table 8 below were dispensed using a multi-channel pipette to 384-well low volume white HTRF microplates containing a duplicate concentration range of test compounds and DMSO controls. The plates were kept at 37° C. with 5% CO2 for 6 hours and then incubated with either phospho EGFR or Total EGFR HTRF detection antibodies according to the cell line and EGFR mutant being assayed. Cells treated in the absence of the test compound were the negative control. Positive control was set by wells containing all reagents but no cells. FRET signal was acquired on EnVision™ Multilabel Reader (PerkinElmer, Santa Clara, CA, USA). Compound concentration that achieves 50% degradation and inhibition was reported as DC50 and IC50, respectively.

[1] = test system: BaF3 cells expressing wild-type EGFR; assay: Ba/F3 EGFR cell viability (CellTiter-Glo), wild-type EGFR; type: cell-based; settings: Mus musculus, Ba/F3 WT EGFR, read-out: CTGlo (GI50)
pY1068 EGFR L858R-T790M = target: T3, pY1068 EGFR L858R-T790M (Homo sapiens, UniProt P00533, L858R/T790M); assay: Phospho-EGFR (pY1068) inhibition HTRF, NCI-H1975; type: cell-based; settings: 6 hours, read-out: pEGFR IC50
T3 construct: NCI-H1975 (harboring EGFR heterozygous L858R-T790M mutations); host or cells: NCI-H1975
Source text: as §1, §2

[2] = test system: BaF3 cells expressing EGFR L858R-T790M; assay: Ba/F3 EGFR cell viability (CellTiter-Glo), L858R-T790M; type: cell-based; settings: Mus musculus, read-out: CTGlo (GI50)
Source text: (§3) RPMI 1640 media, cell culture flasks, and 384-well microplates were purchased from VWR (Radnor, PA, USA). Fetal bovine serum (FBS) was purchased from Life Technologies (Carlsbad, CA, USA) and CellTiter-Glo® was purchased from Promega (Madison, WI, USA). The Ba/F3 parental cell line was purchased from CrownBio (Santa Clara, CA). BaF3 cell lines ectopically expressing the EGFR mutations L858R, L858R-T790M, L858R-C797S, and L858R-T790M-C797S were purchased from CrownBio and EGFR mutations L858R-L718Q, L858R-T790M-L718Q, L858R-L792H, and L858R-T790M-L792H, were purchased from Signosis (Santa Clara, CA).
(§4) Cell viability was assessed based on the quantification of ATP using the CellTiter-Glo® assay (Promega, Madison, WI, USA). To determine the effect of compounds on cell viability, all Ba/F3 cell lines were plated at a cell density of 2000 cells/well in 384-well plates using RPMI 1640+10% FBS and treated with compounds of interest using a 10-point half-log dilution series in duplicate for 72 hours, with the highest dose set at […]. CellTiter-Glo® reagent was then added and luminescence signals were measured using an EnVision™ Multimode plate reader (Perkin Elmer, Santa Clara, CA). For data normalization, cells untreated with the test compounds at Time=72 hours were set to 100% (equivalent to maximal cell growth after 72 hours); cells untreated with the test compounds at Time=0 hours were set to 0% (equivalent to cytostasis); and media-only wells were set to −100% (equivalent to complete cytotoxicity). % Viability was determined by normalizing the signal with positive and DMSO treated negative controls on the same microtiter plate. The half-maximal inhibition of cell growth (GI50) is computed from where the fitted curve crosses 50% while the half-maximal lethal dose (LD50) is computed from where the fitted curve crosses −50%.

[3] = test system: BaF3 cells expressing EGFR L858R-L792H; assay: Ba/F3 EGFR cell viability (CellTiter-Glo), L858R-L792H; type: cell-based; settings: Mus musculus, read-out: CTGlo (GI50)
Source text: as §3, §4

[4] = test system: BaF3 cells expressing EGFR L858R; assay: Ba/F3 EGFR cell viability (CellTiter-Glo), L858R; type: cell-based; settings: Mus musculus, read-out: CTGlo (GI50)
Source text: as §3, §4

[5] = target: T4, pY1068 EGFR L858R-T790M-C797S (Homo sapiens, UniProt P00533, C797S/L858R/T790M); assay: Phospho-EGFR (pY1068) inhibition HTRF, NCI-H1975+CS; type: cell-based; settings: 6 hours, read-out: pEGFR IC50
T4 construct: generated using CRISPR technology to introduce the additional C797S mutation by Horizon Discovery; host or cells: NCI-H1975+CS (CRISPR knock-in of C797S)
Source text: as §1, §2

EGFR L858R = EGFR L858R (Homo sapiens, UniProt P00533, L858R); assay: Differential scanning fluorimetry (DSF); type: binding; settings: EGFR (L858R) 10 μM, compound 100 μM, vs apo protein +DMSO TM = 45.4° C.
Procedure: The protein was incubated at 10 μM in buffer (100 mM HEPES pH 7.5 and 150 mM NaCl) with DMSO to determine the stability of the protein alone. In addition, the protein (10 μM) was incubated with each compound (100 μM) individually, or in combination, for 30 min on ice. Protein stability was measured in the presence of 4×SYPRO™ Orange dye (Thermo Fisher) using a ViiA7 Real-Time PCR System (Thermo Fisher) adapted for thermal melts. Reactions of 20 μL were run in quadruplicate using Microamp Optical 384-well reaction plates (Applied Biosystems). Temperature was increased by 0.5° C. intervals from 25° C. to 99° C. and fluorescence intensity was measured. In-house curve fitting analysis software was used to calculate the thermal melting point (TM) of the protein in each reaction.

[6] = H1975 (L858R-T790M), read-out: tEGFR DC50
[7] = Table 9A, NCI-H1975 cells, Total EGFR HTRF, read-out: H1975 EGFR DC50

Compound	DC50 (EGFR L858R-T790M; [6])	DC50 (EGFR L858R-T790M; [7])	IC50 (pY1068 EGFR L858R)	GI50 [1]	IC50 (pY1068 EGFR L858R-T790M)	GI50 [2]	GI50 [3]	GI50 [4]	IC50 [5]	ΔTm at 100 µM (EGFR L858R)
Cn1nc(N2CCC(=O)NC2=O)c2ccc([C@H]3CCN(CC(=O)N4CC5(C4)CN(c4ccc(-c6cc(F)c7c(c6)C(=O)N(C(C(=O)Nc6nccs6)c6ncn8c6CCC8)C7)cc4)C5)CC3(F)F)cc21 (stereo partly drawn) [Compound 2, 2-(6,7-dihydro-5H-pyrrolo[1,2-c]imidazol-1-yl)-2-[6-[4-[2-[2-[(4R)-4-[3-(2,4-dioxohexahydropyrimidin-1-yl)-1-methyl-indazol-6-yl]-3,3-difluoro-1-piperidyl]acetyl]-2,6-diazaspiro[3.3]heptan-6-yl]phenyl]-4-fluoro-1-oxo-isoindolin-2-yl]-N-thiazol-2-yl-acetamide]	12 nM	< 50 nM	8 nM	310 nM	14 nM	6 nM	4 nM	3 nM	29 nM	–
O=C1CC[C@H](Nc2ccc(N3CCC(O)(CC(=O)N4CC5(C4)CN(c4ccc(-c6cc(F)c7c(c6)C(=O)N(C(C(=O)Nc6nccs6)c6ncn8c6CCC8)C7)cc4)C5)CC3)c(F)c2)C(=O)N1 (stereo partly drawn) [Compound 1, 2-(6,7-dihydro-5H-pyrrolo[1,2-c]imidazol-1-yl)-2-[6-[4-[2-[2-[1-[4-[[(3S)-2,6-dioxo-3-piperidyl]amino]-2-fluoro-phenyl]-4-hydroxy-4-piperidyl]acetyl]-2,6-diazaspiro[3.3]heptan-6-yl]phenyl]-4-fluoro-1-oxo-isoindolin-2-yl]-N-thiazol-2-yl-acetamide]	8 nM	< 50 nM	5 nM	1620 nM	9 nM	9 nM	9 nM	12 nM	10 nM	5.8 °C
